Results taken from ChEMBL document CHEMBL1629576, “Microanalysis of beta-lactam antibiotics and vancomycin in plasma for pharmacokinetic studies in neonates” (Antimicrob Agents Chemother, 2009).
Values belong to the compound of their own block, whether it stands above or below them.

Experiments:
Type in all cases: ADME, organism-based
Plasma [1] = assay: Volume of distribution in extracorporeal membrane oxygenation-treated human neonatal plasma at 20 mg/kg, po by UPLC-MS/MS analysis; parameters: dose 20 mg/kg, route oral; conditions: in vivo
[2] = Elimination rate constant in extracorporeal membrane oxygenation-treated human neonatal plasma at 25 mg/kg QID by UPLC-MS/MS analysis; parameters: dose 25 mg/kg
[3] = Volume of distribution in extracorporeal membrane oxygenation-treated human neonatal plasma at 25 mg/kg SID by UPLC-MS/MS analysis; parameters: dose 25 mg/kg
[4] = Elimination rate constant in extracorporeal membrane oxygenation-treated human neonatal plasma treatment at 50 mg/kg BID by UPLC-MS/MS analysis; parameters: dose 50 mg/kg
[5] = Volume of distribution in extracorporeal membrane oxygenation-treated human neonatal plasma at 50 mg/kg BID by UPLC-MS/MS analysis; parameters: dose 50 mg/kg
Plasma [6] = assay: Intercompartmental clearance rate from central to peripheral side of extracorporeal membrane oxygenation-treated human neonatal plasma at 20 mg/kg, po by UPLC-MS/MS analysis; parameters: dose 20 mg/kg, route oral; conditions: in vivo
Plasma [7] = assay: Intercompartmental clearance rate from peripheral to central side of extracorporeal membrane oxygenation-treated human neonatal plasma at 20 mg/kg, po by UPLC-MS/MS analysis; parameters: dose 20 mg/kg, route oral; conditions: in vivo

Vd (Plasma [1]): 1.03 L/kg
k el [2]: 9.17e-05 s⁻¹
Vd [3]: 0.713 L/kg
Structure (SMILES): CC1(C)S[C@@H]2[C@H](NC(=O)[C@H](N)c3ccc(O)cc3)C(=O)N2[C@H]1C(=O)O [AMOXICILLIN]

k el [4]: 5.47e-05 s⁻¹
Vd [5]: 0.912 L/kg
Structure (SMILES): CO/N=C(\C(=O)N[C@@H]1C(=O)N2C(C(=O)O)=C(COC(C)=O)CS[C@H]12)c1csc(N)n1 [CEFOTAXIME]

Structure (SMILES): CN[C@H](CC(C)C)C(=O)N[C@H]1C(=O)N[C@@H](CC(N)=O)C(=O)N[C@H]2C(=O)N[C@H]3C(=O)N[C@H](C(=O)N[C@H](C(=O)O)c4cc(O)cc(O)c4-c4cc3ccc4O)[C@H](O)c3ccc(c(Cl)c3)Oc3cc2cc(c3O[C@@H]2O[C@H](CO)[C@@H](O)[C@H](O)[C@H]2O[C@H]2C[C@](C)(N)[C@H](O)[C@H](C)O2)Oc2ccc(cc2Cl)[C@H]1O [VANCOMYCIN]
k12 (Plasma [6]): 1.5 h⁻¹
k21 (Plasma [7]): 2.634 h⁻¹
